Measurements reported in patent publication US20070167408A1, “NOVEL ALKYL PHOSPHOLIPID DERIVATIVES WITH REDUCED CYTOTOXICITY AND USES THEREOF” (ZENTARIS GmbH, priority 2005, published 2007).
≈ marks a conversion by molar mass, not a printed value.

Assays:
[1] = system: Cryptococcus neoformans ATCC 90112; assay: Anti-fungal broth microdilution (MIC), fungus H; type: cell-based; conditions: yeast protocol, more than 80% inhibition, 48 h
Method: (§1) Anti-fungal activity of selected compounds of the invention was assessed by means of anti-fungal susceptibility tests as follows.
(§2) The antifungal activities of the compounds of the invention against different fungi were measured according to standard broth microdilution methods of the US National Committee for Clinical Laboratory standards (NCCLS) for yeasts (NCCLS document M27-A, 1997) and filamentous fungi (NCCLS document M38-A, 2002).
(§3) Stock solutions of compounds of the invention were freshly prepared on the days of experiments equal to 1.28 mg/10 ml media. Serial dilutions were performed to achieve the following testing concentrations: 64 μg/ml, 32 μg/ml, 16 μg/ml, 8 μg/ml, 4 μg/ml, 2 μg/ml, 1 μg/ml, 0.5 μg/ml, 0.25 μg/ml and 0.125 μg/ml.
(§4) An inoculum of 10^6 CFU/ml of the fungi strain was prepared in the appropriate medium and transferred to test tubes for incubation.
(§5) The method is used to determine the minimum inhibitory concentrations (MIC) of drugs on fungi strains. […] For the filamentous fungi protocol, MIC determination took place after 48 to 72 h of culture at 35° C. and was defined at that concentration which produced more than 50% visible growth inhibition.

[2] = system: Aspergillus fumigatus 322-384; assay: Anti-fungal broth microdilution (MIC), fungus B; type: cell-based; conditions: filamentous protocol, more than 50% growth inhibition, 48 to 72 h
Method: as §1, §2, §3, §4, §5

[3] = system: Aspergillus fumigatus ATCC 204305; assay: Anti-fungal broth microdilution (MIC), fungus A; type: cell-based; conditions: filamentous protocol, more than 50% growth inhibition, 48 to 72 h
Method: as §1, §2, §3, §4, §5

[4] = system: Candida albicans ATCC 10231; assay: Anti-fungal broth microdilution (MIC), fungus D; type: cell-based; conditions: yeast protocol, more than 80% inhibition, 48 h
Method: as §1, §2, §3, §4, §5

[5] = system: Trypanosoma brucei rhodesiense (strain STIB900); assay: In vitro drug activity assay, protozoon B; type: cell-based; conditions: bloodstream form trypomastigotes, 72 hours, Alamar Blue
Method: (§6) In vitro activity of selected compounds of the invention against different protozoa was assessed as follows.
Trypanosoma brucei rhodesiense STIB900 bloodstream form trypomastigotes were maintained in HMI-18 medium (Hirumi H, Hirumi K, J Parasitol. 1989, 75(6):985-989) with 15% heat-inactivated fetal calf serum at 37° C., 5% CO2, humidified atmosphere. Trypomastigotes were washed and resuspended in fresh medium at a concentration of 2×10^5 mL. Test compounds were given to the trypomastigotes and plates were incubated for 72 hours at 37° C., 5% CO2, humidified atmosphere. At 72 hours the plates were assessed microscopically before Alamar Blue was added (Raz et al., Acta Trop. 1997, 68: 139-147). Plates were read after 5 to 6 hours at EX/EM 530/585 nm with a filter cutoff at 550 nm. ED50 values were calculated with Msxlfit (IDBS).
(§7) The following protozoa were assessed: • A) Trypanosoma cruzi (Tulahuan-LACZ amstigotes in PEM, Lorente S O et al., Antimicrobial agents and chemotherapy 2004, 48(8): 2937-2950; Buckner et al., Infection and Immunity 1999, 67(1): 403-409; Buckner et al., Antimicrobial Agents and Chemotherapy 1996, 40(11): 2592-2597) • B) Trypanosoma brucei rhodesiense (strain STIB900, Lorente S O et al., Antimicrobial agents and chemotherapy 2004, 48(8): 2937-2950; Habtemariam S, BMC Pharmacology 2003, 3:6) • C) Plasmodium falciparum (strain K1, Korsinczky M et al., Antimicrobial agents and chemotherapy 2000, 44(8): 2100-2108; Thaitong S and Beale G H, Trans. R. Soc. Trop. Med. Hyg. 1981, 75: 271-273; Trager W and Jensen J B, Science 1976, 193: 673-675) • D) Plasmodium faiciparum (strain 3D7, Mu et al., PLoS Biology 2005, 3(10): e335)

[6] = system: Candida albicans TS3; assay: Anti-fungal broth microdilution (MIC), fungus F; type: cell-based; conditions: yeast protocol, more than 80% inhibition, 48 h
Method: as §1, §2, §3, §4, §5

[7] = system: Cryptococcus neoformans H99; assay: Anti-fungal broth microdilution (MIC), fungus I; type: cell-based; conditions: yeast protocol, more than 80% inhibition, 48 h
Method: as §1, §2, §3, §4, §5

[8] = system: Plasmodium falciparum (strain K1); assay: In vitro drug activity assay, protozoon C; type: cell-based; conditions: strain K1, 3[H]-hypoxanthine method
Method: as §6
(§8) Plasmodium falciparum strain K1 and strain 3D7 parasites were cultured according to Trager W and Jensen J B (Science 1976, 193: 673-675). In vitro drug susceptibility assays with the test compounds were carried out according to Korsinczky M et al. (Antimicrobial agents and chemotherapy 2000, 44(8): 2100-2108) and Fivelman Q L et al. (Antimicrobial agents and chemotherapy 2004, 48(11): 4097-4102) using a ^3[H]-hypoxanthine radioisotope method. ED50 values were calculated with Msxlfit (IDBS).
as §7

[9] = system: Candida albicans ATCC 90028; assay: Anti-fungal broth microdilution (MIC), fungus E; type: cell-based; conditions: yeast protocol, more than 80% inhibition, 48 h
Method: as §1, §2, §3, §4, §5

[10] = system: Cryptococcus gattii ATCC 32608; assay: Anti-fungal broth microdilution (MIC), fungus J; type: cell-based; conditions: yeast protocol, more than 80% inhibition, 48 h
Method: as §1, §2, §3, §4, §5

[11] = system: Plasmodium faiciparum (strain 3D7); assay: In vitro drug activity assay, protozoon D; type: cell-based, Plasmodium falciparum; conditions: strain 3D7, 3[H]-hypoxanthine method
Method: as §6, §8, §7

[12] = system: Aspergillus fumigatus 040-200167; assay: Anti-fungal broth microdilution (MIC), fungus C; type: cell-based; conditions: filamentous protocol, more than 50% growth inhibition, 48 to 72 h
Method: as §1, §2, §3, §4, §5

[13] = system: Candida parapsilosis ATCC 22019; assay: Anti-fungal broth microdilution (MIC), fungus G; type: cell-based; conditions: yeast protocol, more than 80% inhibition, 48 h
Method: as §1, §2, §3, §4, §5

[14] = system: Trypanosoma cruzi (Tulahuan-LACZ amstigotes in PEM); assay: In vitro drug activity assay, protozoon A; type: cell-based; conditions: amastigotes in murine peritoneal macrophages, 3 days
Method: as §6
Murine (CD1) peritoneal macrophages were harvested 24 hours after starch induction and dispensed into 96-well plates at a concentration of 4×10^5 mL. After 24 hours, the cells were infected with Trypanosoma cruzi Tulahuan LAC-Z amastigotes (grown and cultured according to Buckner et al., Infection and Immunity 1999, 67(1): 403-409). 24 hours later, the infected cells were exposed to the test compounds (compounds of the invention as well as known prior art compounds) for 3 days and 50 μL of 500 μM CPRG-1% Nonidet P-40 was added to each well. The plates were read after 2 to 5 hours at 570 nm (Buckner et al., Antimicrobial Agents and Chemotherapy 1996, 40(11): 2592-2597). ED50 values were calculated with Msxlfit (IDBS).
as §7

CCCCCCCCCCCCCCCCOP(=O)([O-])OC1CC[N+](C)(Cc2ccccc2)CC1 (stereo not shown) [Compound 1, Phosphoric acid 1-benzyl-1-methyl-piperidin-4-yl ester hexadecyl ester]
MIC, fungus H [1]: 1.5 µg/mL (≈ 2.94 µM) | MIC, fungus B [2]: 2 µg/mL (≈ 3.92 µM) | MIC, fungus A [3]: 2 µg/mL (≈ 3.92 µM) | MIC, fungus D [4]: 2 µg/mL (≈ 3.92 µM) | ED50 (μg/mL), protozoon B [5]: 18.80 µg/mL (≈ 36.9 µM) | MIC, fungus F [6]: 1.5 µg/mL (≈ 2.94 µM) | MIC, fungus I [7]: 2 µg/mL (≈ 3.92 µM) | ED50 (μg/mL), protozoon C [8]: 6.93 µg/mL (≈ 13.6 µM) | MIC, fungus E [9]: 1 µg/mL (≈ 1.96 µM) | MIC, fungus J [10]: 1 µg/mL (≈ 1.96 µM) | ED50 (μg/mL), protozoon D [11]: 9.97 µg/mL (≈ 19.6 µM) | MIC, fungus C [12]: 4 µg/mL (≈ 7.85 µM) | MIC, fungus G [13]: 3 µg/mL (≈ 5.89 µM) | ED50 (μg/mL), protozoon A [14]: 1.71 µg/mL (≈ 3.35 µM)

CCCCCCCCCCCCCCCCCCOP(=O)([O-])OC1CC[N+](CC)(CC)CC1 [Compound 5, Phosphoric acid 1,1-diethyl-piperidin-4-yl ester octadecyl ester]
MIC [1]: 1.5 µg/mL (≈ 3.06 µM) | MIC ([2]; Aspergillus fumigatus, 322384): 8 µg/mL (≈ 16.3 µM) | MIC ([3]; Aspergillus fumigatus, ATCC204305): 6 µg/mL (≈ 12.3 µM) | MIC [4]: 2 µg/mL (≈ 4.08 µM) | ED50 (μg/mL), protozoon B [5]: 14.20 µg/mL (≈ 29 µM) | MIC [6]: 2 µg/mL (≈ 4.08 µM) | MIC [7]: 2 µg/mL (≈ 4.08 µM) | ED50 (μg/mL), protozoon C [8]: 21.26 µg/mL (≈ 43.4 µM) | MIC [9]: 2 µg/mL (≈ 4.08 µM) | MIC [10]: 0.75 µg/mL (≈ 1.53 µM) | ED50 (μg/mL), protozoon D [11]: 16.31 µg/mL (≈ 33.3 µM) | MIC ([12]; Aspergillus fumigatus, 040200167): 24 µg/mL (≈ 49 µM) | MIC [13]: 3 µg/mL (≈ 6.13 µM) | ED50 (μg/mL), protozoon A [14]: 1.43 µg/mL (≈ 2.92 µM)
